Values after ≈ are worked out from the molar mass of the structure shown. Read-outs that look alike come from different tables or passages of the source.

Data set [1] deals with Klebsiella pneumoniae HE7. Nature of the data set: Susceptibility of β-lactamase producing bacterial strains to β-lactam antibiotics in 1:1 combination (Table II). Format: cell-based.
The subject of data set [2] is Escherischia coli HA58 (RTEM). Nature of the data set: organism not typed. Format: cell-based.
Data set [3] deals with Staphylococcus aureus CJ9. Nature of the data set: Susceptibility of β-lactamase producing bacterial strains to β-lactam antibiotics in 1:1 combination (Table II). Format: cell-based.
Another data set relates to Proteus mirabilis HJ28. The description is as above. Format: cell-based.
The test system of data set [4] is Staphylococcus aureus CJ145. The data set is described as above. Format: cell-based.
The next data set relates to β-lactamases. To be noted: well known; cited from earlier work.
The conditions of data set [5]: as such or as hydrochloride; cited from earlier work.
Where [6] appears, read: serial dilution in agar medium, inoculum 10^4 CFU, alone or in 1:1 combination (value of each partner), read-out: IC50.
The mark [7] stands for this setting: serial dilution in agar medium, inoculum 10^5 CFU, alone or in 1:1 combination (value of each partner), read-out: IC50.

For the compound `CC1(C)S[C@@H]2[C@H](/N=C/N3CCCCCC3)C(=O)N2[C@H]1C(=O)O` [Mecillinam], the IC50 in data set [1] (setting [6]) was over 25 µg/mL; in data set [4] (setting [7]) it was over 50 µg/mL. The minimum inhibitory concentration (MIC) was determined as 1.3 µg/mL (≈ 3.99 µM) in data set [2] and 6.3 µg/mL in the data set with Proteus mirabilis HJ28 (setting [6]). Moreover, the MIC in data set [3] (setting [7]) is over 50 µg/mL.
For the compound `CC1(C)S[C@@H]2[C@H](NC(=O)[C@H](N)c3ccccc3)C(=O)N2[C@H]1C(=O)O` [Ampicillin], the IC50 in data set [1] (setting [6]) was over 50 µg/mL; in data set [4] (setting [7]) it was 1.6 µg/mL. The values for the minimum inhibitory concentration (MIC) (in data set [2]; in the data set on Proteus mirabilis HJ28 (setting [6])) were over 100 µg/mL and over 50 µg/mL, respectively. In addition, in data set [3] (setting [7]), the MIC amounted to 10 µg/mL.
Turning to `CC1(C)S[C@@H]2[C@H](NC(=O)Cc3ccccc3)C(=O)N2[C@H]1C(=O)O` [Benzylpenicillin], the IC50 was over 100 µg/mL in data set [1] and 10 µg/mL in data set [4]. For the same compound, the minimum inhibitory concentration (MIC) (in data set [2]; in the data set with Proteus mirabilis HJ28) was over 100 µg/mL in each case. Also, the MIC in data set [3] is over 100 µg/mL. Moreover, the “sensitivity to β-lactamases” value with β-lactamases is recorded as “very sensitive to β-lactamases”.
As for `CCN(CC)CCOC(=O)[C@@H]1N2C(=O)[C@@H](NC(=O)Cc3ccccc3)[C@H]2SC1(C)C` [Penethamate], in data set [5], the “concentration of benzylpenicillin in the udder” value is “rapid and high concentration of benzylpenicillin in the udder”; the “effect in the treatment of mastitis” value is listed as “very effective in the treatment of mastitis”.

By IC50 is commonly meant the concentration at which inhibition is half-maximal.

Values taken from US4594246A, “Pharmaceutically-acceptable amine salts of 6-β-halopenicillanic acids” (Leo Pharmaceutical Products, priority 1979, dated 1986).
